Source: publication PMC13429874, “ABHD2 activity is not required for the non-genomic action of progesterone on human sperm” (Human Reproduction (Oxford, England), 2026)
“Also recorded” adds a separate entry of the source.

Experiments:
[1] = test system: human sperm; assay: Sperm hyperactivation assay (CASA); assay type: cell-based; conditions: 10 µM compound, 30 min
Description: Sperm hyperactivation was assessed in human sperm purified by density gradient centrifugation. Semen samples (n = 7) were allowed to liquefy for 15–30 min at 37°C, and up to 2 ml of liquified semen was layered onto a two-step GM501 gradient system (45%/90%; Gynemed; Sierksdorf, Germany) pre-equilibrated at 37°C. Gradients were centrifuged for 20 min at 400 × g (no break). The 90% pellet was collected, washed in SpermActive medium (Gynemed; composition per manufacturer: NaCl, KCl, MgSO4.7H2O, KH2PO4, 1.77 mM CaCl2.2H2O, D(+)-glucose anhydrous, sodium pyruvate, sodium lactate, EDTA, alanyl-glutamine, essential and non-essential amino acids, 25.71 mM NaHCO3, 15 mM HEPES, 5 g/l human serum albumin, 10 mg/l gentamicin, and phenol red), and incubated for at least 2 h at 37°C, 5% CO2.
For compound testing, sperm suspensions with 7.5 × 10^6 sperm/ml in SpermActive were treated with either DMSO (vehicle) or 10 µM test compound. For basal and induced hyperactivation conditions, DMSO or progesterone (3 µM), respectively, was added. Samples were incubated for 30 min at 37°C, 5% CO2, before motility analysis.
Motility was analyzed using a CASA system (CEROSII^TM Animal Motility, software version 1.16; Hamilton Thorne, Beverly, MA, USA), mounted on an Axiolab 5 microscope (Zeiss, Germany), equipped with a TPi-SX Thermal Plate (Tokai Hit; Shizuoka-ken, Japan) and a JAI CM-040-GE CCD camera (JAI; Tokyo, Japan). Leja slides (20 µm chamber depth; Leja Products B.V., Nieuw-Vennep, The Netherlands) were pre-warmed to 37°C, cleaned with lens paper, and loaded by capillary action with 6 µl sperm suspension; capillary correction was set to 1.3. Sperm tracks were recorded at 37°C using a 10× negative-phase objective, acquiring 60 frames at 60 Hz with 4 ms exposure and gain set to 600. For each sample and condition, 300–500 motile sperm from at least 10 non-overlapping fields were analyzed. Hyperactive sperm were identified using the SORT function with the following Boolean argument: VCL > 150 µm/s and LIN < 50% and ALH > 7 µm. For each sample and condition, the percentage of hyperactive sperm was normalized to the percentage of motile sperm, and the mean of two technical duplicates was reported.
Statistical analysis was performed using GraphPad Prism 10 for Windows (version 10.6.1). Data normality was assessed using Shapiro–Wilk test. Differences between basal and induced hyperactivation were evaluated using a paired t-test, with effective pairing confirmed across all comparisons. P < 0.05 was considered statistically significant.

[2] = target: T1, ABHD2^L33–E425 (Homo sapiens, UniProt P08910); assay: ABHD2^L33-E425 fluorometric enzymatic activity assay with 7-HCA substrate; assay type: biochemical; conditions: 10 nM enzyme, 10 µM 7-HCA; read-out: IC50 for ABHD2^L33-425, fluorometric assay using 7-HCA
T1 construct: expression for ABHD2 amino acids L33–E425, in which a predicted transmembrane domain (amino acids 1–32) is removed; His6-FLAG (N); made in house; host or cells: E. coli BL21(DE3)-R3-pRARE2
T1 sequence (P08910 33-425): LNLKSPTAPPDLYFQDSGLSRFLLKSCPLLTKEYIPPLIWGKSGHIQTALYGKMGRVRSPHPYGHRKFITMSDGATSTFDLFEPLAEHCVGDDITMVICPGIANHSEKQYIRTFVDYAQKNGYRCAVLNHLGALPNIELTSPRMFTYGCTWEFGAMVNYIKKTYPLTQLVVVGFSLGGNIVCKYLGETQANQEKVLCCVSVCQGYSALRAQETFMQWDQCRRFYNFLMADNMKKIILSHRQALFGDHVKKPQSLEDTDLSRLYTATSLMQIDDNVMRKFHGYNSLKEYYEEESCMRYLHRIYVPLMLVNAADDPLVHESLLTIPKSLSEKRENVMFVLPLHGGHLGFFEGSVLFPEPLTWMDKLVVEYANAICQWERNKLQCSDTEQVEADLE

[3] = target: T2, human ABHD10 (Homo sapiens, UniProt Q9NUJ1); assay: ABHD10 colorimetric assay with p-nitrophenyl butyrate; assay type: biochemical; conditions: 10 µM compound, 500 µM p-NPB
T2 construct: Constructs encoding amino acids T53—N306 of human ABHD10; His6-TEV site (N); made in house; host or cells: E. coli
T2 sequence (Q9NUJ1 53-306): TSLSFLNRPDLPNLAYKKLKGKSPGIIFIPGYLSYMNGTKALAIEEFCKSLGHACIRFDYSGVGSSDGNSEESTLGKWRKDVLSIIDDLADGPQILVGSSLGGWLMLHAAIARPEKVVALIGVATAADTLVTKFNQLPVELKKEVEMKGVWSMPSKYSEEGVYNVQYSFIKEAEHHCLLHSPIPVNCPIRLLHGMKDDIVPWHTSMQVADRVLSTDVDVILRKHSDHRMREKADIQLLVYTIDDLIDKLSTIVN
Description: (§1) Enzymatic activities of ABHD10 and ABHD11 were measured in a colorimetric assay using p-nitrophenyl butyrate (p-NPB) as substrate. Enzymes at 1500 nM ABHD10 and 125 nM ABHD11 in 20 mM HEPES pH 7.5, 150 mM NaCl, and 2% (v/v) DMSO were pre-incubated in 96-well plates with 50 µM test compound for 30 min at 4°C. Plates were then equilibrated at 37°C for 2 min, and reactions were initiated by adding 160 µl of pre-warmed substrate solution (same buffer with 625 µM p-NPB) to a total volume of 200 µl, yielding final assay concentrations of 300 nM ABHD10, 25 nM ABHD11, and 500 µM pNPB. The substrate solution was prepared immediately before addition to the enzyme mixtures. Absorbance at 405 nm was recorded on a SpectraMax iD3 plate reader (Molecular Devices) for 20 min with continuous monitoring at 30 s intervals.

[4] = target: T3, human ABHD11 (Homo sapiens, UniProt Q8NFV4); assay: ABHD11 colorimetric assay with p-nitrophenyl butyrate; assay type: biochemical; conditions: 10 µM compound, 500 µM p-NPB
T3 construct: residues V34—V315 of human ABHD11; His6-TEV site (N); made in house; host or cells: E. coli
T3 sequence (Q8NFV4 25-306 limits assumed): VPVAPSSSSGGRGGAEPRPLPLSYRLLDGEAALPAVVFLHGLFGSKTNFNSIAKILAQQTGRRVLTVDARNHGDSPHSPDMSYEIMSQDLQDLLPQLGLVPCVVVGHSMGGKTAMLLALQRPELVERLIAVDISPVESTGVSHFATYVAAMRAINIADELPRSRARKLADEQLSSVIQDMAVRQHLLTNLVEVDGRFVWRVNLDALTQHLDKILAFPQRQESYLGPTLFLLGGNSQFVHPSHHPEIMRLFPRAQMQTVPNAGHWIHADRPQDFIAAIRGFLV
Description: as §1

IC50 [2]: 360 nM
inhibition of ABHD10 [3]: no detectable inhibition
inhibition of ABHD11 [4]: no detectable inhibition
Structure (SMILES): CC1CCCN(C(=O)c2ccccc2C(=O)c2ccccc2)C1 (centres unmarked) [Compound 4]
effect on progesterone-induced hyperactivation ([1]; 3 µM progesterone): not affected
effect on basal hyperactivation [1]: No statistically significant differences; also recorded: did not affect
